What was measured:
[1] = test system: subcutaneous melanoma (B16F10 cells); test: Growth of subcutaneous melanoma in B16F10 tumor-bearing mice; assay type: in vivo; conditions: B16F10 tumor-bearing C57BL/6 mice, vein injection twice at 4-day interval; BMS-202 0.1 mg/mouse, Cr^3+ 100 μg/mL 100 μL, 12 days
Description: A batch of SPF C57BL/6 mice (6 weeks old) were purchased from a company. B16F10 cells were selected as subcutaneous tumor model cells. 5×10^5 B16F10 cells were inoculated on a right side of a dorsal flank of each mouse and cultured for 13 days. When tumor volumes reached 100-200 mm^3, the modeling was successful. The obtained tumor-bearing mice can be used for a subsequent in vivo experiment. Animal experiments all comply with requirements for animal protection ethics and welfare.
The successfully constructed B16 tumor-bearing mice were divided into four groups: a CrCl3 experimental group (amount of chromium ions: 100 μg/mL, 100 μL), a BMS experimental group (0.1 mg/mouse), a CrCl3+BMS experimental group (100 μg/mL, 100 μL CrCl3+0.1 mg BMS/mouse) and a control group (normal saline, 100 μL) (n=3 for each group). On the first day, CrCl3, BMS and CrCl3+BMS were injected into veins of mice in different groups, respectively. […] Tumor growth was monitored every two days by a digital caliper with a tumor volume calculation formula of ½×L×W^2. On the 12th day of treatment, the mice were euthanatized.

RAW264.7 cells = test: CCK-8 assay of toxicity of metal ions; assay type: cell-based, mouse; conditions: 0-200 μg/mL metal ions, 24 h
Description: Toxicities of metal ions with different concentrations on RAW264.7 cells were quantified through a CCK-8 assay. Specific steps are as follows: RAW264.7 cells (2×10^4 cells/well, n=4) were inoculated in a 96-well plate, stayed for a whole night and cultured by media containing metal ions with different concentrations (0 μg/mL, 25 μg/mL, 50 μg/mL, 100 μg/mL and 200 μg/mL) for 24 h, respectively, and cell viability was measured through CCK-8.

[2] = test system: MIP-1α secretion in RAW264.7 cells; test: ELISA of MIP-1α secretion in RAW264.7 cells; assay type: cell-based, mouse; conditions: Cr^3+ 0, 50, 100, 200 μg/mL, 48 h
Description: (§1) Cr^3+ with different concentrations (0 μg/mL, 50 μg/mL, 100 μg/mL and 200 μg/mL) was co-incubated with RAW264.7 cells (1×10^6 cells/well) for 48 h. Cell supernatants and protein samples were collected, and various types of […] including MIP-la were detected through ELISA. The expression of various proteins in a PI3K/Akt/mTOR pathway was detected through protein immunoblotting.

macrophages (RAW264.7) = test: Transwell detection of the promotion of macrophage migration by metal ions; assay type: cell-based, mouse; conditions: for ability to promote the migration of macrophages: liver cancer cells in lower chamber, metal ions 0, 500, 1000, 2000 μM, RAW264.7 in upper chamber
Description: This example provides the establishment and validation of a platform for screening metal ions that promotes the migration of immune cells. A specific method is described below. • 1. Preparation of metal ions: metal compounds such as zinc chloride, potassium chloride, magnesium chloride, manganese chloride, anhydrous calcium chloride, aluminium sulfate (octadecahydrate), anhydrous copper(II) chloride, anhydrous iron(III) chloride, iron(II) chloride, chromium(III) chloride hexahydrate and anhydrous cobalt(II) chloride were prepared into solutions ranging from 0 μM to 2000 μM using normal saline, respectively. • 2. Preparation of BM-DCs (bone marrow-derived dendritic cells), RAW264.7 (mouse monocytic leukemia macrophage cells) and mouse spleen lymphocytes • (1) Acquisition of mouse BM-DCs: bone marrow was taken from hind limbs of […] mice, and treated with a red blood cell lysis buffer to remove red blood cells; bone marrow cells (4×10^6 cells) were cultured in a 10 cm culture dish, and 10% FBS, mercaptoethanol (2-ME, 0.8 ng/ml, Sigma) and mouse granulocyte-macrophage colony-stimulating factor (GM-CSF, 20 ng/mL, PeproTech) were added to a DMEM medium and cultured for 7 days; expression levels of CD11c, CD80 and CD86 in cells were detected using antibodies and a flow cytometer. • (2) Mouse macrophages RAW264.7: derived from a cell bank of the Chinese Academy of Sciences and cultured. • (3) Mouse spleen lymphocytes: spleens of C57BL/6 mice were acquired and filtered by a screen into single cells, treated with a red blood cell lysis buffer to remove red blood cells, and centrifuged with lymphocyte isolation solution to isolate the cells for in vitro culture. • 3. Transwell detection of the promotion of the migration of immune cells by metal ions
Liver cancer cells were placed in lower chambers (12 wells) of a Transwell plate, and the above metal ion solutions with different concentrations (0 μM, 500 μM, 1000 μM and 2000 μM) were added to the lower chambers, respectively. After 24 h, the BM-DCs, the RAW264.7 cells and the spleen lymphocytes were placed in upper chambers (2×10^4 cells/well) of the Transwell plate, respectively. The cells were co-cultured for a certain period of time, and nylon membranes of the chambers were taken and stained to observe the migration of the cells.

IR tyrosine kinases = IR tyrosine kinases (Homo sapiens, UniProt P06213); conditions: background statement; cited from earlier work
IR tyrosine kinases, sequence (P06213 28-1382): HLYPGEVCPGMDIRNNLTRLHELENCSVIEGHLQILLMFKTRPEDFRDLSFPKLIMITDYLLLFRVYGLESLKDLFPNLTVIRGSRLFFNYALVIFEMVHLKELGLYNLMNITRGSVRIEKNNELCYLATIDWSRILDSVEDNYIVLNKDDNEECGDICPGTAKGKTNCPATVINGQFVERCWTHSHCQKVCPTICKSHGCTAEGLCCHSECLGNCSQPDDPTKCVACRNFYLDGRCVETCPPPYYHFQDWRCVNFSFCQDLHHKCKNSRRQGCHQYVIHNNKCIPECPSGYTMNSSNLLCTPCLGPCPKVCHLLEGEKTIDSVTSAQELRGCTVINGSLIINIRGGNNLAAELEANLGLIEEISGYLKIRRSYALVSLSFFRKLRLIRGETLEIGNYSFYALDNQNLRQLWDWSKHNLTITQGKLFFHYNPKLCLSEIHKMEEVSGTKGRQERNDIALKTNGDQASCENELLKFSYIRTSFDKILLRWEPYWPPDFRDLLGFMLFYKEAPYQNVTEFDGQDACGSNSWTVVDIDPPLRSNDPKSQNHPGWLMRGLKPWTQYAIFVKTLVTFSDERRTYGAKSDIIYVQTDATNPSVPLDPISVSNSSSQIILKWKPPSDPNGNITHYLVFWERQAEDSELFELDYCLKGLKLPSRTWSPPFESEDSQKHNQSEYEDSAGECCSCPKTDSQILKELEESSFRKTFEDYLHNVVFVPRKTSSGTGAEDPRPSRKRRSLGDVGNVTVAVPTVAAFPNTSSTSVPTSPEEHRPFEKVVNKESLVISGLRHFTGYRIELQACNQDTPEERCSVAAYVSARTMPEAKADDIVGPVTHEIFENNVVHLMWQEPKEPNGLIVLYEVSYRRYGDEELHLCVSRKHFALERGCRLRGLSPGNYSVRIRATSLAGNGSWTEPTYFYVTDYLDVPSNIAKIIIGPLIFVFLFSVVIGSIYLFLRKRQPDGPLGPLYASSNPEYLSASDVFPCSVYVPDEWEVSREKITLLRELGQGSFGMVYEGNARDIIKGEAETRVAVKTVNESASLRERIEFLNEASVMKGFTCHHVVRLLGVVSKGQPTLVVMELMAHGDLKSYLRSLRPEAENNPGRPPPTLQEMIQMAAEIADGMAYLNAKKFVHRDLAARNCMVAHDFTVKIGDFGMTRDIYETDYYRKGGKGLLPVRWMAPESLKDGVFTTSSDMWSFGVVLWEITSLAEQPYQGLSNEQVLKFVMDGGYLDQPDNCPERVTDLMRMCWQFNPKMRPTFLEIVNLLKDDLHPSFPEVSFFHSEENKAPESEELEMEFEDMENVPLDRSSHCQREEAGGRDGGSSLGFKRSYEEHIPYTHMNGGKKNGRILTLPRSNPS

PI3K/AKT/mTOR pathway = test: Protein immunoblotting of the PI3K/Akt/mTOR pathway in RAW264.7 cells; assay type: cell-based, mouse
Description: as §1

[3] = Stability of metal ions in vitro and in vivo; assay type: physicochemical

Compound	effect on tumor growth of subcutaneous melanoma [1]	toxicity on RAW264.7 cells (cell viability, CCK-8) (RAW264.7 cells)	secretion of MIP-1α [2]	migration promoting effect on macrophages (macrophages (RAW264.7); Cr^3+ between 0 μM and 2000 μM)	ability to promote the migration of macrophages (macrophages (RAW264.7))	enhancement of the activity of IR tyrosine kinases (IR tyrosine kinases)	activation of the PI3K/AKT/mTOR pathway (PI3K/AKT/mTOR pathway)	expression of AKT and phosphorylated AKT (pAKT) (PI3K/AKT/mTOR pathway; 48 h)	stability in vitro and in vivo [3]
COc1nc(OCc2cccc(-c3ccccc3)c2C)ccc1CNCCNC(C)=O [BMS-202, reference compound]	no significant limiting effect on the tumor growth								
O.O.O.O.O.O.[Cl][Cr]([Cl])[Cl] [Cr^3+, chromium(III) chloride hexahydrate]	no significant limiting effect on the tumor growth	good biocompatibility (low biological toxicity)	significantly increased	significant migration promoting effect	have an ability to promote the migration of macrophages	six times	can activate the PI3K/AKT/mTOR pathway	induces high expression	
[Cl][Cu][Cl] [Cu^2+, anhydrous copper(II) chloride, reference compound]		relatively high cytotoxicity			have an ability to promote the migration of macrophages				
[Cl][Fe][Cl] [Fe^2+, iron(II) chloride, reference compound]					have an ability to promote the migration of macrophages				poor stability in vitro and in vivo and is easily oxidized to Fe^3+

Source: patent US20260240903A1, “USE OF TRIVALENT CHROMIUM IONS AND/OR METAL CHROMIUM IN PREPARATION OF DRUG FOR IMMUNOTHERAPY OF TUMORS” (SHENZHEN LUOHU PEOPLE'S HOSPITAL, priority 2023, published 2026)
